From US10183011B2, “Anti-depression compounds” (Board of Regents of the University of Texas System, priority 2009, dated 2019)

Legend:
[1] = system: U2OS cells; experiment: Calcium ionophore A23187-induced loss of mitochondrial membrane potential (TMRM dye release); format: cell-based; settings: TMRM dye
Text: FIG. 22A, FIG. 22B, FIG. 22C, FIG. 22D, FIG. 22E and FIG. 22F: Example 45 Compound Preserves Mitochondrial Membrane Potential in Parallel to Proneurogenic Activity U2OS cells were loaded with tetramethylrhodamine methyl ester (TMRM) dye and then exposed to the calcium ionophore A23187 either in the presence or absence of test compounds. Example 45 Compound (FIG. 22A) preserved mitochondrial membrane potential following exposure to the calcium ionophore A23187 in a dose-dependent manner. The protective effect of P7C3 was enantiomeric specific. […] Each compound was evaluated in triplicate with similar results.
Extensive evidence pioneered by the laboratory of Xiaodong Wang has shown that an intrinsic pathway leading to programmed cell death emanates from mitochondria (Liu et al., Cell 1996, 86, 147-157; Yang et al., Science 1997, 275, 1129-1132). With the help of the Wang lab, assays were established to test whether Example 45 Compound might protect mitochondria from calcium-induced dissolution (Distelmaier et al., Cytometry A 2008, 73, 129-138). Tetramethylrhodamine methyl ester (TMRM) is a cell-permeant, cationic red-orange fluorescent dye that is readily sequestered by active mitochondria. When loaded with TMRM dye, vehicle-only treated cells released the dye within 15 minutes of exposure to the calcium ionophore A23187. By contrast, dye release was prevented in cells exposed to as little as […] of Example 45 Compound (FIG. 18A).
Since P7C3 ameliorates the death of newborn neurons in the dentate gyrus in living mice, it is possible that its function might relate to mitochondrial integrity. Assays were established to test whether P7C3 might protect cultured U2OS cells from calcium-induced mitochondrial dissolution (Distelmaier et al., Cytometry A 2008, 73, 129-138). Tetramethylrhodamine methylester (TMRM) dye is sequestered by active mitochondria, and, when loaded with TMRM, vehicle-treated cells released the dye within 15 rain of exposure to the calcium ionophor A23 187.

[2] = system: neural precursor cells in the subgranular zone of the dentate gyrus; experiment: In vivo pro-neurogenic efficacy/neuroprotection assay: intracerebroventricular infusion, BrdU incorporation in the dentate gyrus; design: species or system mouse (C57/Bl6); settings: direct administration into the brain via Alzet minipumps for one week, 10 μM unless stated
Procedure: Compounds were evaluated for pro-neurogenic efficacy/neuroprotection in our standard in vivo assay at 10 μM concentration in four 12 week old adult male C57/Bl6 mice.
In an effort to identify compounds that might stimulate the birth of new neurons, or protect newborn neurons from cell death, a library of 1,000 compounds was screened using an in vivo assay. In the initial screen, compounds were randomly pooled into groups often and administered intracerebroventricularly at a constant rate over seven days into the left lateral ventricle of living mice via Alzet osmotic mini-pumps. Compounds were administered at a concentration of 10 μM for each molecule, making a total solute concentration of 100 μM. After seven days of infusion at a constant rate of 0.5 μL/hour, a total of 84 μL of volume will have left the pump (0.00084 μMoles) and entered the cerebrospinal fluid. The average volume of a brain from a 12 week old male, C57/B6 mouse in our study is 500 mm^3. […] Under these conditions, at the end of one week of infusion each compound would be present at 1.7 μMolar concentration. Since the actual amount of chemical compound in the brain is likely to be only a fraction of this predicted level, it is reasonable to estimate that compounds were administered at mid to low-nanomolar concentrations.
During compound infusion, animals were intraperitoneally (IP) injected daily with the thymidine analog, bromodeoxyuridine (BrdU), as a means of scoring the birth and survival of proliferating neural precursor cells in the hippocampus. Because both social interaction and voluntary exercise are known to stimulate hippocampal neurogenesis, mice were housed individually without access to running wheels throughout the screening period. Following the week-long period of compound administration, animals were perfused and sacrificed. Dissected brain tissue was fixed, embedded, sectioned, stained with antibodies to BrdU, and evaluated by light microcopy as a means of quantifying neurogenesis and survival of newborn neural precursor cells localized to the subgranular layer of the dentate gyrus on the brain hemisphere contralateral to the side of mini-pump cannulation. Every fifth section throughout the entire rostral-caudal extent of the hippocampus was analyzed, and the total number of BrdU+ cells was normalized against the measured volume of the dentate gyrus. Because both increased proliferation and survival of newborn neurons are important screening parameters, the screen was conducted over seven days in order to cast a wide net to detect molecules that might augment either process. […] Intracranial infusions of either fibroblast growth factor 2 (FGF-2) or artificial cerebral spinal fluid (aCSF) vehicle via the same, week-long protocol were employed as positive and negative controls. There was no difference in the number of BrdU-labeled cells in the dentate gyrus between mice subjected to surgical pump implantation and infusion with vehicle, and mice having had no surgery (FIG. 2). This confirmed the validity of the in vivo approach to assess the ability of intracerebroventricularly infused compounds to enhance hippocampal neurogenesis in the contralateral hemisphere.
In order to further study Example 45 Compound, an in vivo structure activity relationship (SAR) study was conducted using 37 chemical derivatives of the compound for pro-neurogenic activity via direct administration into the brain of adult mice via Alzet minipumps. Compounds were administered for one week at 10 uM into 4 mice per compound, along with daily IP injections of BrdU. Following compound administration, animals were perfused, sacrificed and subjected to sectioning, staining and light microscopy in order to monitor hippocampal neurogenesis localized to the subgranular layer of the dentate gyrus. Roughly 10% of the variant compounds retained pro-neurogenic activity indistinguishable from the parent compound. […]

[3] = system: neural precursor cells in the subgranular zone of the dentate gyrus; settings: dosed intracranially as a 10 micromolar solution; MacMillan et al., J Am. Chem. Soc. 2011; cited from earlier work
[4] = Solubility; format: physicochemical
[5] = system: hippocampal neurogenesis in the DG; experiment: Comparison of P7C3 compounds and antidepressant drugs: DG BrdU labeling after i.c.v. infusion; format: in vivo, mouse; settings: 10 μM i.c.v. for 7 days
Text: The neuroprotective efficacies of both P7C3 and P7C3-A20 were next compared to currently marketed antidepressant medications, using screening conditions identical to those by which P7C3 was originally discovered. This experiment was based on the antidepressant actions of P7C3 and P7C3-A20 characterized here, and the dependence on hippocampal neurogenesis for behavioral efficacy of some marketed antidepressant medications in mice.
Proneurogenic efficacies in the DG of P7C3 and P7C3A20 were compared to those of vehicle (artificial cerebrospinal fluid) and several marketed antidepressant compounds (Sigma-Aldrich, St. Louis, Mo.) according to established methods. In brief, mice were housed individually in cages without running wheels or any form of environmental enrichment, in order to create an environment predicted to have as low of a baseline level of hippocampal neurogenesis as possible. Compounds (10 μM, i.c.v.) were administered for 7 days via subcutaneously implanted Alzet osmotic minipumps connected to a cannula directed into the left lateral ventricle, with implantation day designated as day 0. Starting on day 1, mice also received daily injections of BrdU (50 mg/kg, i.p.) at 9 am daily, for 6 days. Twenty four hours after the sixth BrdU injection, mice were transcardially perfused as described above.

[6] = system: cultured primary cortical neurons; experiment: Mitochondrial membrane potential (TMRM) after A23187 in cultured primary cortical neurons; format: cell-based; settings: rat E14 cortical neurons
Text: (§1) FIG. 23: Example 45 Compound Preserves Mitochondrial Membrane Potential in Cultured Primary Cortical Neurons. Cortical neurons cultures from rats on embryonic day 14 were loaded with tetramethylrhodamine methyl ester (TMRM) dye after 6 days of maturation. […] The remaining panels are from cells that were exposed to the calcium ionophore A23187 at time zero. With vehicle-alone, cortical neuron mitochondrial membrane potential was rapidly lost after exposure to the ionophore. […] Results shown are representative of 10 fields analyzed in each of 2 experimental runs for all conditions.
as §1, with “It was also examined whether” for “FIG. 23:”, “preserves mitochondrial membrane potential” for “Preserves Mitochondrial Membrane Potential”, “cultured primary cortical neurons (FIG. 23).” for “Cultured Primary Cortical Neurons.”

Row | SMILES | preservation of mitochondrial membrane potential [1] | increase of DG neurogenesis (BrdU labeling) over vehicle [5] | further results
1 | COc1cccc(NCC(O)Cn2c3ccc(Br)cc3c3cc(Br)ccc32)c1 (single isomer, unassigned; (+)) [(+) enantiomer of Example 62 Compound, 1-(3,6-Dibromo-9H-carbazol-9-yl)-3-(3-methoxyphenylamino)-propan-2-ol] | observed only with the (+) enantiomer | – | pro-neurogenic activity in the in vivo hippocampal neurogenesis assay [2]: fully retained; pro-neurogenic activity in the in vivo hippocampal neurogenesis assay ([2]; listed as (+)-enantiomer of Example 62 Compound): retained potent pro-neurogenic activity
2 | OC(CNc1ccccc1)Cn1c2ccccc2c2ccccc21 (centres unmarked) [Example 76, 1-(9H-carbazol-9-yl)-3-(phenylamino)propan-2-ol] | – | – | pro-neurogenic activity of a commercial sample in the neurogenesis assay [3]: indistinguishable from vehicle; solubility [4]: low solubility; pro-neurogenic activity in the in vivo hippocampal neurogenesis assay [2]: found to be active
3 | CNCCC=C1c2ccccc2CCc2ccccc21 [nortriptyline, nortrypline] | – | did not affect the magnitude of neurogenesis | –
4 | CN(C)CCCN1c2ccccc2CCc2ccc(Cl)cc21 [clomipramine] | – | ~75% | –
5 | CN1CCN2c3ncccc3Cc3ccccc3C2C1 (centres unmarked) [mirtazapine] | – | did not affect the magnitude of neurogenesis | –
6 | COc1cccc(NCC(O)Cn2c3ccc(Br)cc3c3cc(Br)ccc32)c1 (single isomer, unassigned) [Example 1b, 1-(3,6-Dibromo-9H-carbazol-9-yl)-3-(3-methoxyphenylamino)-propan-2-ol] | Preservation of mitochondrial membrane potential in this assay was observed | – | –
7 | Cc1cc(C)n(CC(O)Cn2c3ccc(Br)cc3c3cc(Br)ccc32)n1 (centres unmarked) [Example 33, 1-(3,6-dibromo-9H-carbazol-9-yl)-3-(3,5-dimethyl-1H-pyrazol-1-yl)propan-2-ol] | displayed less protective effect | – | preservation of mitochondrial membrane potential [6]: less effective in preserving mitochondrial membrane potential at any dose tested
8 | OC(CCNc1ccccc1)Cn1c2ccc(Br)cc2c2cc(Br)ccc21 (centres unmarked) [Example 21, 1-(3,6-dibromo-9H-carbazol-9-yl)-4-(phenylamino)butan-2-ol] | displayed less protective effect | – | –
9 | CN(C)CCCN1c2ccccc2CCc2ccccc21 [imipramine] | – | did not affect the magnitude of neurogenesis | –
